From patent US11371055B2, “Herbicide resistance genes” (CORTEVA AGRISCIENCE LLC, priority 2005, dated 2022)

Tests used:
[1] = test system: wildtype KY160 tobacco; experiment: Cross tolerance test, wildtype tobacco; assay type: in vivo, Nicotiana tabacum
Excerpt: (§1) Two to four T0 individuals surviving high rates of 2,4-D and fluroxypyr were saved from each event and allowed to self fertilize in the greenhouse to give rise to T1 seed. The T1 seed was stratified, and sown into selection trays much like that of Arabidopsis (Example 7.4), followed by selective removal of untransformed nulls in this segregating population with 560 g ai/ha glufosinate (PAT gene selection). Survivors were transferred to individual 3-inch pots in the greenhouse. These lines provided high levels of resistance to 2,4-D in the T0 generation. Improved consistency of response is anticipated in T1 plants not having come directly from tissue culture. These plants were compared against wildtype KY160 tobacco. All plants were sprayed with a track sprayer set at 187 L/ha. The plants were sprayed from a range of 140-2240 g ac/ha 2,4-D dimethylamine salt (DMA), 70-1120 g ace/ha triclopyr or 35-560 g ae/ha fluroxypyr. All applications were formulated in water. Each treatment was replicated 2-4 times. Plants were evaluated at 3 and 14 days after treatment. Plants were assigned injury rating with respect to stunting, chlorosis, and necrosis. The T1 generation is segregating, so some variable response is expected due to difference in zygosity.

[2] = test system: AAD-12 (v1) T1 tobacco plants; experiment: Cross tolerance of T1 tobacco to phenoxy and pyridyloxy auxin herbicides; assay type: in vivo, Nicotiana tabacum
Excerpt: as §1

[3] = test system: AAD-12 (v1) tobacco lines (pDAS1580-[1]-018.001, pDAS1580-[1]-004.001, pDAS1580-[1]-020.016); experiment: Field tolerance of tobacco, AAD-12 lines; assay type: in vivo, Nicotiana tabacum
Description: (§2) Field level tolerance trials were conducted on three AAD-12 (v1) lines (events pDAS1580-[1]-018.001, pDAS1580-[1]-004.001 and pDAS1580-[1]-020.016) and one wild-type line (KY160) at field stations in Indiana and Mississippi. Tobacco transplants were grown in the greenhouse by planting T1 seed in 72 well transplant flats (Hummert International) containing Metro 360 media according to growing conditions indicated above. The null plants were selectively removed by Liberty selection as previously described. The transplant plants were transported to the field stations and planted at either 14 or 24 inches apart using industrial vegetable planters. Drip irrigation at the Mississippi site and overhead irrigation at the Indiana site were used to keep plants growing vigorously.
(§3) The experimental design was a split plot design with 4 replications. The main plot was herbicide treatment and the sub-plot was tobacco line. The herbicide treatments were 2,4-D (dimethylamine salt) at 280, 560, 1120, 2240 and 4480 g ac/ha, triclopyr at 840 g ae/ha, fluroxypyr at 280 g ac/ha and an untreated control. Plots were one row by 25-30 ft. Herbicide treatments were applied 3-4 weeks after transplanting using compressed air backpack sprayer delivering 187 L/ha carrier volume at 130-200 kpa pressure. Visual rating of injury, growth inhibition, and epinasty were taken at 7, 14 and 21 days after treatment.

[4] = test system: wild-type canola (Nex710); experiment: Field tolerance of canola, wild-type; assay type: in vivo, Brassica napus; conditions: for % Visual Injury at 14 DAT: Wild Type (Nex710)
Description: Field level tolerance trial was conducted on two AAD-12 (v1) events 3759(20)018.001 and 3759(18)030.001 and a wild-type canola (Nex710) in Fowler, Ind. The experimental design was a randomized complete block design with 3 replications. Herbicide treatments were 2,4-D (dimethylamine salt) at 280, 560, 1120, 2240 and 4480 g ac/ha, triclopyr at 840 g ae/ha, fluroxypyr at 280 g ae/ha and an untreated control. Within each herbicide treatment, single 20 ft row/event for event 3759(18)030.0011, 3759(18)018.001 and wild-type line (Nex710) were planted with a 4 row drill on 8 inch row spacing. Herbicide treatments were applied when canola reached the 4-6 leaf stage using compressed air backpack sprayer delivering 187 L/ha carrier volume at 130-200 kpa pressure. Visual injury ratings were taken at 7, 14 and 21 days after application.

[5] = test system: AAD-12 (v1) (pDAS1580) T2 tobacco plants; experiment: Auxinic herbicide cross tolerance of stacked tobacco, AAD-12 T2; assay type: in vivo, Nicotiana tabacum
Description: (§4) Homozygous AAD-12 (v1) (pDAS1580) and AAD-1 (v3) (pDAB721) plants (see PCT/US2005/014737 for the latter) were both reciprocally crossed and F1 seed was collected. The F1 seed from two reciprocal crosses of each gene were stratified and treated 4 reps of each cross were treated under the same spray regimen as used for the other testing with one of the following treatments: 70, 140, 280 g ac/ha fluroxypyr (selective for the AAD-12 (v1) gene); 280, 560, 1120 g ae/ha R-dichloroprop (selective for the AAD-1 (v3) gene); or 560, 1120, 2240 g ae/ha 2,4-D DMA (to confirm 2,4-D tolerance). Homozygous T2 plants of each gene were also planted for use as controls. Plants were graded at 3 and 14 DAT.

[6] = test system: AAD-12 x AAD-1 F1 cross tobacco; experiment: Auxinic herbicide cross tolerance of stacked tobacco, F1 cross; assay type: in vivo, Nicotiana tabacum; conditions: AAD-12 (v1) x AAD (v3) F1
Description: as §4

[7] = test system: AAD-1 (v3) (pDAB721) T2 tobacco plants; experiment: Auxinic herbicide cross tolerance of stacked tobacco, AAD-1 T2; assay type: in vivo, Nicotiana tabacum
Description: as §4

[8] = test system: wild-type tobacco line (KY160); experiment: Field tolerance of tobacco, wild-type line; assay type: in vivo, Nicotiana tabacum; conditions: for injury: 14 DAT; for Average % Injury across locations at 14 DAT: Wild type
Description: as §2, §3

[9] = 2× rate of triclopyr (840 g ae/ha), 14 DAT

CNC.O=C(O)COc1ccc(Cl)cc1Cl [2,4-D DMA]
Average % Injury of Replicates 14 DAT ([1]; 140 g ae/ha): 45%
Average % Injury of Replicates 14 DAT ([1]; 560 g ae/ha): 60%
Average % Injury of Replicates 14 DAT ([1]; 2240 g ae/ha): 73%
Average % Injury of Replicates 14 DAT ([2]; T1 1580(1)-004, 140 g ae/ha): 0%
Average % Injury of Replicates 14 DAT ([2]; T1 1580(1)-004, 560 g ae/ha): 0%
Average % Injury of Replicates 14 DAT ([2]; T1 1580(1)-004, 2240 g ae/ha): 0%
Average % Injury of Replicates 14 DAT ([2]; T1 1580(1)-018, 140 g ae/ha): 0%
Average % Injury of Replicates 14 DAT ([2]; T1 1580(1)-018, 560 g ae/ha): 0%
Average % Injury of Replicates 14 DAT ([2]; T1 1580(1)-018, 2240 g ae/ha): 0%

O=C(O)COc1ccc(Cl)cc1Cl [2,4-D, 2,4-dichlorophenoxyacetic acid]
average injury ([3]; 2,4-D at the 2× rate, 14DAT): 1%
average injury ([3]; 2,4-D at the 4× rate, 14DAT): 4%
average injury ([3]; 2,4-D at the 8× rate, 14 DAT): 4%
Average % Injury across locations at 14 DAT ([3]; pDAS1580-[1]-004.001, 280 GM AE/HA): 0%
Average % Injury across locations at 14 DAT ([3]; pDAS1580-[1]-004.001, 560 GM AE/HA): 0%
Average % Injury across locations at 14 DAT ([3]; pDAS1580-[1]-004.001, 1120 GM AE/HA): 1%
Average % Injury across locations at 14 DAT ([3]; pDAS1580-[1]-004.001, 2240 GM AE/HA): 4%
Average % Injury across locations at 14 DAT ([3]; pDAS1580-[1]-004.001, 4480 GM AE/HA): 4%
Average % Injury across locations at 14 DAT ([3]; pDAS1580-[1]-018.001, 280 GM AE/HA): 0%
Average % Injury across locations at 14 DAT ([3]; pDAS1580-[1]-018.001, 560 GM AE/HA): 2%
Average % Injury across locations at 14 DAT ([3]; pDAS1580-[1]-018.001, 1120 GM AE/HA): 2%
Average % Injury across locations at 14 DAT ([3]; pDAS1580-[1]-018.001, 2240 GM AE/HA): 4%
Average % Injury across locations at 14 DAT ([3]; pDAS1580-[1]-018.001, 4480 GM AE/HA): 4%
Average % Injury across locations at 14 DAT ([3]; pDAS1580-[1]-020.016, 280 GM AE/HA): 0%
Average % Injury across locations at 14 DAT ([3]; pDAS1580-[1]-020.016, 560 GM AE/HA): 0%
Average % Injury across locations at 14 DAT ([3]; pDAS1580-[1]-020.016, 1120 GM AE/HA): 1%
Average % Injury across locations at 14 DAT ([3]; pDAS1580-[1]-020.016, 2240 GM AE/HA): 4%
Average % Injury across locations at 14 DAT ([3]; pDAS1580-[1]-020.016, 4480 GM AE/HA): 4%
visual injury ([4]; 2,4-D at 2240 g ae/ha (4× rate), 14DAT): 72%
% Visual Injury at 14 DAT ([4]; 280 GM AE/HA): 0 e %
% Visual Injury at 14 DAT ([4]; 560 GM AE/HA): 15 d %
% Visual Injury at 14 DAT ([4]; 1120 GM AE/HA): 33 bc %
% Visual Injury at 14 DAT ([4]; 2240 GM AE/HA): 48 a %
Average % injury 14 DAT ([5]; 560 g ae/ha): 0%
Average % injury 14 DAT ([5]; 1120 g ae/ha): 0%
Average % injury 14 DAT ([5]; 2240 g ae/ha): 0%
Average % injury 14 DAT ([6]; 560 g ae/ha): 0%
Average % injury 14 DAT ([6]; 1120 g ae/ha): 0%
Average % injury 14 DAT ([6]; 2240 g ae/ha): 0%
Average % injury 14 DAT ([7]; 560 g ae/ha): 0%
Average % injury 14 DAT ([7]; 1120 g ae/ha): 4%
Average % injury 14 DAT ([7]; 2240 g ae/ha): 9%
injury ([8]; 2,4-D at 560 g ae/ha (1× field application rate)): 63%
Average % Injury across locations at 14 DAT ([8]; 280 GM AE/HA): 48%
Average % Injury across locations at 14 DAT ([8]; 560 GM AE/HA): 63%
Average % Injury across locations at 14 DAT ([8]; 1120 GM AE/HA): 78%
Average % Injury across locations at 14 DAT ([8]; 2240 GM AE/HA): 87%
Average % Injury across locations at 14 DAT ([8]; 4480 GM AE/HA): 92%
injury ([2]; 4× field rate (2240 g ae/ha) for 2,4-D or below): No injury

C[C@@H](Oc1ccc(Cl)cc1Cl)C(=O)O [(R)-dichlorprop, R-2,4-dichlorophenoxypropionic acid]
Average % injury 14 DAT ([5]; 280 g ae/ha): 15%
Average % injury 14 DAT ([5]; 560 g ae/ha): 50%
Average % injury 14 DAT ([5]; 1120 g ae/ha): 70%
Average % injury 14 DAT ([6]; 280 g ae/ha): 0%
Average % injury 14 DAT ([6]; 560 g ae/ha): 0%
Average % injury 14 DAT ([6]; 1120 g ae/ha): 0%
Average % injury 14 DAT ([7]; 280 g ae/ha): 0%
Average % injury 14 DAT ([7]; 560 g ae/ha): 0%
Average % injury 14 DAT ([7]; 1120 g ae/ha): 3%

O=C(O)COc1nc(Cl)c(Cl)cc1Cl [triclopyr]
average injury across the three lines [3, 9]: 5%
Average % Injury across locations at 14 DAT ([3]; pDAS1580-[1]-004.001, 840 GM AE/HA): 5%
Average % Injury across locations at 14 DAT ([3]; pDAS1580-[1]-018.001, 840 GM AE/HA): 4%
Average % Injury across locations at 14 DAT ([3]; pDAS1580-[1]-020.016, 840 GM AE/HA): 5%
visual injury [4, 9]: 25%
% Visual Injury at 14 DAT ([4]; 840 GM AE/HA): 25 cd %
Average % Injury of Replicates 14 DAT ([1]; 70 g ae/ha): 40%
Average % Injury of Replicates 14 DAT ([1]; 280 g ae/ha): 65%
Average % Injury of Replicates 14 DAT ([1]; 1120 g ae/ha): 80%
injury ([8]; 2× rate of triclopyr (840 g ae/ha)): 53%
Average % Injury across locations at 14 DAT ([8]; 840 GM AE/HA): 53%
injury ([2]; 70-1120 g ae/ha triclopyr, in one event line): Some injury
Average % Injury of Replicates 14 DAT ([2]; T1 1580(1)-004, 70 g ae/ha): 0%
Average % Injury of Replicates 14 DAT ([2]; T1 1580(1)-004, 280 g ae/ha): 0%
Average % Injury of Replicates 14 DAT ([2]; T1 1580(1)-004, 1120 g ae/ha): 0%
Average % Injury of Replicates 14 DAT ([2]; T1 1580(1)-018, 70 g ae/ha): 5%
Average % Injury of Replicates 14 DAT ([2]; T1 1580(1)-018, 280 g ae/ha): 5%
Average % Injury of Replicates 14 DAT ([2]; T1 1580(1)-018, 1120 g ae/ha): 8%
